System: α-synuclein PFF-treated mice cortical neurons
Experiment: PFF-induced α-synucleinopathy in primary cortical neurons, immunofluorescence
Format: cell-based, mouse
Settings: for endogenous α-synuclein expression: PBS- or PFF-treated mouse cortical neurons
Experimental: Figure 2 PCiv prevents α-synuclein aggregation in vitro and in cultured neurons with PFF treatment. (A) Representative Western blots showing the degree of recombinant α-synuclein (αSyn) aggregation in a test tube in the presence or absence of PCiv (100 μM) at the indicated incubation duration (phosphate-buffered saline [PBS], 37 °C for 3 or 5 days). Aggregation of α-synuclein was determined using α-synuclein antibody. (B) Quantification of the relative amount of α-synuclein aggregate in high molecular weight sizes in panel A (n = 3 per group). (C) Representative immunofluorescence of MAP2 and Lewy-like inclusion marker pS129-αSyn in mice cortical neurons treated with α-synuclein preformed fibril (PFF) (1 μg, for 14 days). To evaluate the protective effects of PCiv as compared with PCiii, these compounds were treated (1 μM every 2 days for 14 days) following the PFF treatment. (D) Quantification of pS129-αSyn immunofluorescence signal intensities in MAP2-positive cortical neurons in each experimental group (n = 15 cells from three separate experiments). (E) Cell viability assessment in the indicated experimental groups was monitored by CCK-8 assay (n = 3 per group). The data are expressed as means ± SEMs. * p < 0.05, ** p < 0.01, *** p < 0.001, and **** p < 0.0001, ANOVA test followed by Tukey’s post hoc analysis.
CD1 mice were purchased from Orient Co. for use in the mouse primary neuron culture. E14 embryos from CD1 mice were dissected for primary cortical neurons in Neurobasal A medium (Gibco, Thermo Fisher Scientific Inc., Waltham, MA, USA) supplemented with B-27 (Gibco, Thermo Fisher Scientific Inc., Waltham, MA, USA) and 1 mM L-glutamine. Next, the primary cortical neurons were maintained in a poly L-lysine-coated tissue culture plate, and the medium was changed every 2–3 days. After 7 days, PFF was added to the cortical neurons and incubated for 14 days to observe the p-S129-α-synuclein signal which was used for immunofluorescence analysis. […] The optical value was read at 450 nm using a multi-detection microplate reader (Synergy, BioTek Instruments Inc., Winooski, VT, USA). […]
(A) Representative Western blots showing the degree of recombinant α-synuclein (αSyn) aggregation in a test tube in the presence or absence of t-Khellatone, PCiii, and PCiv (100 μM) at 0 and 5 days of incubation (phosphate-buffered saline [PBS], 37 °C for 5 days). Aggregation of α-synuclein was determined using α- synuclein antibody. (B) Quantification of relative amount of α-synuclein aggregate in high molecular weight sizes in panel A (n = 3 per group). […] (D) Quantification of filament conformation-αSyn (Filament) immunofluorescence signal intensities in MAP2 -positive cortical neurons in each experimental group (n = 15 cells from three separate experiments). […]

[1] = 1 μM every 2 days for 14 days, PFF 1 μg

| SMILES | PFF-induced elevation of filament conformation-αSyn signal [1] | PFF-induced elevation of pS129-αSyn signal [1] | endogenous α-synuclein expression |
| --- | --- | --- | --- |
| C/C=C(\C)C(=O)O[C@H]1[C@H](OC(C)=O)c2c(ccc3ccc(=O)oc23)OC1(C)C (relative stereo) [PCiv, trans-4′-acetyl-3′-tigloylkhellactone] | mitigated | mitigated | not affected |
| C/C=C(\C)C(=O)O[C@@H]1c2c(ccc3ccc(=O)oc23)OC(C)(C)[C@H]1OC(C)=O (relative stereo) [PCiii, peucedanocoumarin III] | – | – | not affected |
